Tests used:
Conditions in all cases: 72 h
[1] = system: Caco-2; experiment: cell viability relative to DMSO; higher = less toxic
[2] = system: Vero E6; experiment: as above
[3] = system: U2OS; experiment: as above
[4] = system: Calu-3; experiment: as above
[5] = system: Caco-2; experiment: relative viability EC50 (midpoint between 100% and the lowest measured viability); higher = less toxic
[6] = system: Vero E6; experiment: as above
[7] = system: U2OS; experiment: as above
[8] = system: Calu-3; experiment: as above
[9] = system: Caco-2; experiment: drug sensitivity score (DSS) for viability; higher = more toxic; extreme values may be limits of the assay
[10] = system: Vero E6; experiment: as above
[11] = system: U2OS; experiment: as above
[12] = system: Calu-3; experiment: as above
[13] = system: HepG2; experiment: cell viability relative to DMSO; higher = less toxic
[14] = system: HepG2; experiment: relative viability EC50 (midpoint between 100% and the lowest measured viability); higher = less toxic
[15] = system: HepG2; experiment: drug sensitivity score (DSS) for viability; higher = more toxic; extreme values may be limits of the assay

| Compound | cell viability ([1]; 1 nM) [%] | cell viability ([1]; 10 nM) [%] | cell viability ([1]; 100 nM) [%] | cell viability ([1]; 1000 nM) [%] | cell viability ([1]; 10000 nM) [%] | cell viability ([2]; 1 nM) [%] | cell viability ([2]; 10 nM) [%] | cell viability ([2]; 100 nM) [%] | cell viability ([2]; 1000 nM) [%] | cell viability ([2]; 10000 nM) [%] | cell viability ([3]; 1 nM) [%] | cell viability ([3]; 10 nM) [%] | cell viability ([3]; 100 nM) [%] | cell viability ([3]; 1000 nM) [%] | cell viability ([3]; 10000 nM) [%] | cell viability ([4]; 1 nM) [%] | cell viability ([4]; 10 nM) [%] | cell viability ([4]; 100 nM) [%] | cell viability ([4]; 1000 nM) [%] | cell viability ([4]; 10000 nM) [%] | relative viability EC50 [5] [µM] | relative viability EC50 [6] [µM] | relative viability EC50 [7] [µM] | relative viability EC50 [8] [µM] | drug sensitivity score [9] | drug sensitivity score [10] | drug sensitivity score [11] | drug sensitivity score [12] | cell viability ([13]; 1 nM) [%] | cell viability ([13]; 10 nM) [%] | cell viability ([13]; 100 nM) [%] | cell viability ([13]; 1000 nM) [%] | cell viability ([13]; 10000 nM) [%] | relative viability EC50 [14] [µM] | drug sensitivity score [15] |
| --- | --- | --- | --- | --- | --- | --- | --- | --- | --- | --- | --- | --- | --- | --- | --- | --- | --- | --- | --- | --- | --- | --- | --- | --- | --- | --- | --- | --- | --- | --- | --- | --- | --- | --- | --- |
| COc1cc(OC)c(OC)cc1C=O [asaraldehyde] | 95.2 | 102 | 94.8 | 104 | 90.1 | 108 | 100 | 98.6 | 103 | 102 | 97.3 | 103 | 97.7 | 105 | 99 | 87 | 108 | 90.5 | 107 | 88.3 | > 10 | > 10 | > 10 | > 10 | 0 | 0 | 0 | 0 | – | – | – | – | – | – | – |
| C[N+](C)(C)CCOP(=O)(O)OC[C@H](O)CO [choline-alfoscerate] | 106 | 101 | 100 | 100 | 102 | – | – | – | – | – | 105 | 102 | 101 | 99.4 | 98 | 99.9 | 98 | 91.2 | 96.3 | 102 | > 10 | – | > 10 | > 10 | 0 | – | 0 | 0 | – | – | – | – | – | – | – |
| O=C(O[C@@H]1Cc2c(O)cc(O)cc2O[C@@H]1c1ccc(O)c(O)c1)c1cc(O)c(O)c(O)c1 [epicatechin-gallate-(-)] | 99.7 | 93.6 | 87.7 | 92 | 100 | 105 | 102 | 99 | 96.1 | 99 | 97.7 | 97.5 | 103 | 97.2 | 101 | 107 | 102 | 93.2 | 91 | 104 | > 10 | > 10 | > 10 | > 10 | 0 | 0 | 0 | 0 | – | – | – | – | – | – | – |
| CC(C)OC(=O)C(C)(C)Oc1ccc(C(=O)c2ccc(Cl)cc2)cc1 [fenofibrate] | – | – | – | – | – | – | – | – | – | – | 100 | 100 | 98.4 | 95.7 | 92.6 | 103 | 111 | 102 | 36.9 | 94.5 | – | – | > 10 | > 10 | – | – | 0 | 0 | – | – | – | – | – | – | – |
| CCCCCCCC/C=C/CCCCCCCC(=O)OC[C@H]1O[C@@H](n2ccc(N)nc2=O)C(F)(F)[C@@H]1O [gemcitabine-elaidate] | 95.3 | 96.1 | 79.7 | 68.5 | 67.6 | 105 | 104 | 55.6 | 61.5 | 58.3 | 105 | 110 | 70.2 | 77 | 70.7 | 106 | 90.1 | 69.1 | 57.8 | 35.2 | – | – | – | 0.179 | 7.6 | 13.4 | 8.2 | 12.3 | 104 | 57.6 | 36.5 | 35.8 | 38.5 | 0.0077 | 25.2 |
| CC(C(=O)O)c1ccc(N2Cc3ccccc3C2=O)cc1 (stereo not given) [indoprofen] | 91.9 | 97.8 | 99.5 | 96.5 | 93.8 | 95.9 | 99.6 | 97.8 | 99.4 | 105 | 95.8 | 97.6 | 103 | 100 | 102 | 84.3 | 104 | 97.1 | 92.9 | 94.1 | > 10 | > 10 | > 10 | > 10 | 0 | 0 | 0 | 0 | – | – | – | – | – | – | – |
| c1ccc(Cn2c(N3CCNCC3)nc3ccccc32)cc1 [lerisetron] | 100 | 98.6 | 104 | 98.9 | 96.5 | 103 | 100 | 99.4 | 98.7 | 96.6 | 99.2 | 95.4 | 105 | 98.1 | 99.9 | 97.6 | 95.8 | 100 | 98 | 96.3 | > 10 | > 10 | > 10 | > 10 | 0 | 0 | 0 | 0 | – | – | – | – | – | – | – |
| CCCc1nc(C(C)(C)O)c(C(=O)OCc2oc(=O)oc2C)n1Cc1ccc(-c2ccccc2-c2nnn[nH]2)cc1 [olmesartan-medoxomil] | 92.8 | 96 | 97.5 | 91.4 | 99.3 | 97.6 | 99.2 | 94.6 | 89 | 115 | 95.3 | 93.7 | 99.6 | 96.3 | 99.2 | 91.5 | 92.9 | 100 | 94.3 | 104 | > 10 | > 10 | > 10 | > 10 | 0 | 0 | 0 | 0 | – | – | – | – | – | – | – |
| CC(C)(CO)[C@@H](O)C(=O)NCCC(=O)O [pantothenic-acid] | 101 | 97.3 | 96.7 | 94.8 | 66.4 | 100 | 103 | 95 | 98.5 | 94 | 95.9 | 91.4 | 101 | 92.3 | 97.4 | 99.6 | 97.7 | 106 | 87.8 | 103 | – | > 10 | > 10 | > 10 | 2.4 | 0 | 0 | 0 | – | – | – | – | – | – | – |
| CC(CCc1ccc(O)cc1)NCC(O)c1ccc(O)cc1 (stereo not given) [ractopamine] | 91.9 | 84.6 | 104 | 110 | 114 | 115 | 102 | 101 | 99.3 | 104 | 100 | 98.1 | 99.1 | 99.2 | 101 | 92.8 | 87.2 | 101 | 94.4 | 115 | > 10 | > 10 | > 10 | > 10 | 0 | 0 | 0 | 0 | – | – | – | – | – | – | – |
| C[C@]12CC[C@H](O)C[C@H]1CC[C@@H]1[C@@H]2CC[C@]2(C)[C@@](O)(c3ccoc3)CC[C@]12O [rostafuroxine] | 103 | 98 | 99.7 | 97.8 | 109 | 103 | 102 | 99.2 | 96.1 | 99.7 | 102 | 98.6 | 101 | 101 | 101 | 96.4 | 88.4 | 103 | 94.7 | 99.6 | > 10 | > 10 | > 10 | > 10 | 0 | 0 | 0 | 0 | – | – | – | – | – | – | – |
| NCCc1c[nH]c2ccc(O)cc12 [serotonin] | 96.8 | 89.1 | 102 | 90.2 | 89.5 | 107 | 102 | 103 | 98.9 | 101 | 91.3 | 95.8 | 94.3 | 97.3 | 92.9 | – | – | – | – | – | > 10 | > 10 | > 10 | – | 0 | 0 | 0 | – | 89.2 | 91.4 | 94.3 | 88.4 | 107 | > 10 | 0 |
| Cc1nc(-c2cn3c(n2)-c2ccc(-c4cnn(C(C)(C)C(N)=O)c4)cc2OCC3)n(C(C)C)n1 [taselisib] | 106 | 99.6 | 90.8 | 59.4 | 32.4 | 106 | 106 | 97.3 | 85 | 62.6 | 102 | 97.3 | 90.4 | 70.3 | 57.2 | 99.2 | 88.1 | 63.6 | 36 | 24 | 0.649 | – | – | 0.107 | 8.9 | 3.5 | 6.2 | 16.9 | 97.4 | 84.8 | 70.3 | 62.7 | 52 | – | 11.6 |
| COc1ccc2[nH]c([S+]([O-])Cc3ncc(C)c(OC)c3C)nc2n1 (stereo not given) [tenatoprazole] | – | – | – | – | – | – | – | – | – | – | – | – | – | – | – | 109 | 114 | 103 | 96.6 | 105 | – | – | – | > 10 | – | – | – | 0 | 101 | 113 | 104 | 106 | 97.7 | > 10 | 0 |
| O=c1oc2cc(O)ccc2s1 [tioxolone] | 90.6 | 97.9 | 88.6 | 107 | 77.2 | 101 | 98.1 | 99.9 | 94.2 | 101 | 96.2 | 103 | 100 | 104 | 95.6 | 99.8 | 102 | 97.8 | 98.5 | 64.3 | > 10 | > 10 | > 10 | – | 0.5 | 0 | 0 | 1.9 | 104 | 90.4 | 96 | 93.7 | 104 | > 10 | 0 |
| CC(C(=O)O)c1ccc2c(c1)CC(=O)c1ccccc1S2 (stereo not given) [zaltoprofen] | 99.7 | 93.8 | 98.4 | 106 | 101 | 93.8 | 101 | 90.9 | 100 | 104 | 99.9 | 97.3 | 99.6 | 98.1 | 101 | – | – | – | – | – | > 10 | > 10 | > 10 | – | 0 | 0 | 0 | – | 95.5 | 103 | 101 | 110 | 111 | > 10 | 0 |
| OCCN1CCN(CC/C=C2/c3ccccc3Sc3ccc(Cl)cc32)CC1 [zuclopenthixol] | 105 | 80.8 | 92.8 | 94.8 | 82 | 95.2 | 95 | 93 | 93.7 | 79.2 | 99.6 | 96 | 99.6 | 97.1 | 79.2 | 95.1 | 93.9 | 98.9 | 91.9 | 47.9 | > 10 | > 10 | > 10 | 1.95 | 0.8 | 0.8 | 1.1 | 4.1 | 93.4 | 101 | 89.9 | 98.6 | 66 | – | 1.8 |

Source: the supplement of paper PMC13380429
